Measurements: ChEMBL document CHEMBL1135082, “Benzylidene rhodanines as novel inhibitors of UDP-N-acetylmuramate/L-alanine ligase” (Bioorg Med Chem Lett, 2002)
In brackets after ≈: the same amount, converted by molar mass.

Legend:
[1] = Inhibitory concentration against recombinant UDP-N-Acetylmuramate/L-Alanine Ligase (MurC) enzyme
Escherichia coli = test: The whole cell inhibitory activity was evaluated against the Gram-negative Escherichia coli; Not active; assay type: functional
Staphylococcus aureus = test: The whole cell inhibitory activity was evaluated against Gram-positive methicillin-resistant Staphylococcus aureus (MRSA); assay type: functional
CHO [2] = test: Cytotoxic effect at mammalian Chinese hamster ovary (CHO) cells; assay type: functional, cell-based; settings: Cricetulus griseus
CHO [3] = test: Cytotoxic effect at mammalian Chinese hamster ovary (CHO) cells; Toxic; assay type: functional, cell-based; settings: Cricetulus griseus

In the case of O=C1NC(=S)S/C1=C\c1cc([N+](=O)[O-])ccc1Oc1ccc(Cl)cc1, the IC50 [1] is reported as 24 µM, the MIC (Escherichia coli) is reported as > 76 µM and the MIC (Staphylococcus aureus) is reported as > 76 µM.
With O=C1NC(=S)S/C1=C\c1ccc(/C=C/c2ccccc2)cc1 the IC50 [1] was 18 µM, the MIC (Escherichia coli) was > 93 µM and the MIC (Staphylococcus aureus) was > 93 µM.
For O=C1NC(=S)S/C1=C\c1cccc(Oc2ccccc2)c1, the IC50 (CHO [2]) was > 96 µM, the IC50 [1] was 22 µM and the MIC (Escherichia coli) was > 87 µM. For the same compound, the MIC (Staphylococcus aureus) was 79 µM (≈ 24.8 µg/mL).
For O=C1NC(=S)S/C1=C/c1cc([N+](=O)[O-])ccc1SCc1ccc(Cl)cc1, the IC50 [1] was 27 µM, the MIC (Escherichia coli) was > 65 µM and the MIC (Staphylococcus aureus) was 31 µM (≈ 13.1 µg/mL). The IC50 (CHO [3]) was 29 µM.
For O=C1NC(=S)S/C1=C\c1cc(OCc2ccccc2)cc(OCc2ccccc2)c1, the IC50 [1] was 12 µM, the MIC (Escherichia coli) was > 69 µM and the MIC (Staphylococcus aureus) was > 69 µM.
For O=C1NC(=S)S/C1=C\c1cc([N+](=O)[O-])ccc1Sc1ccc(Cl)cc1, the IC50 (CHO [2]) was > 73 µM, the IC50 [1] was 24 µM and the MIC (Escherichia coli) was > 87 µM. The MIC (Staphylococcus aureus) was 70 µM (≈ 28.6 µg/mL).
